Among the data in PubChem BioAssay (NCI) are TGI and GI50 values, retold here.

Test systems include A549 NSCLC; ACHN renal; HL-60(TB) leukemia; HOP-92 NSCLC; MDA-MB-231 breast; NCI-H226 lung; NCI-H23 lung; SK-MEL-5 melanoma; TK-10 renal; UACC-257 melanoma.
Common to all, as to experiment: NCI anticancer screen, dose series, 48 h

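Each compound was tested at five concentrations against cells in 96-well plates for 48 hours. GI50: concentration for 50% inhibition of growth. TGI: total growth inhibition.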 Bounds are passed on as bounds.

With `O=[N+]([O-])/C=C/c1cc2ccc3ccccc3c2[nH]1`, the TGI with A549 NSCLC turned out to be 4.88 µM; with ACHN renal, 2.68 µM; in the experiment with HL-60(TB) leukemia, 5.29 µM; in the experiment with HOP-92 NSCLC it was 3.64 µM; in the experiment on MDA-MB-231 breast, 3.2 µM; in the experiment with NCI-H226 lung, 2.78 µM. Moreover, the TGI in the experiment on NCI-H23 lung amounted to 5.07 µM; with SK-MEL-5 melanoma, 3.26 µM; in the experiment on TK-10 renal it was 3.08 µM; in the experiment on UACC-257 melanoma it was 6.45 µM.
`Cc1cc(=O)oc2cc(OC(=O)Nc3ccccc3)ccc12`: the TGI with A549 NSCLC is greater than 100 µM; in the experiment with ACHN renal it was greater than 100 µM; with HL-60(TB) leukemia it was 44.9 µM; in the experiment on HOP-92 NSCLC it was 75.4 µM; in the experiment on MDA-MB-231 breast, greater than 100 µM; with NCI-H226 lung, greater than 100 µM. The TGI in the experiment on NCI-H23 lung, in the experiment on SK-MEL-5 melanoma, with TK-10 renal and in the experiment with UACC-257 melanoma was greater than 100 µM in each case.
On to `CCC(C)(C)[C@H](NC(=O)[C@H]1CCCCN1C)C(=O)N(C)[C@H](C[C@@H](OC(C)=O)c1nc(C(=O)N[C@@H](Cc2ccccc2)C[C@H](C)C(=O)O)cs1)C(C)C`, for which the GI50 in the experiment with A549 NSCLC was less than 0.00167 µM; in the experiment with ACHN renal it was less than 0.00167 µM; with HL-60(TB) leukemia, less than 0.00167 µM; in the experiment with HOP-92 NSCLC it was 0.00661 µM; with MDA-MB-231 breast it was less than 0.00167 µM; in the experiment with NCI-H226 lung, less than 0.00167 µM. Besides, the GI50 in the experiment on NCI-H23 lung is less than 0.00167 µM; with SK-MEL-5 melanoma, less than 0.00167 µM; in the experiment on TK-10 renal, 0.253 µM; with UACC-257 melanoma, greater than 16.7 µM. The TGI was greater than 16.7 µM in the experiment on A549 NSCLC; greater than 16.7 µM in the experiment on ACHN renal; less than 0.00167 µM with HL-60(TB) leukemia; greater than 16.7 µM in the experiment with HOP-92 NSCLC; 0.00743 µM in the experiment with NCI-H226 lung; greater than 16.7 µM with NCI-H23 lung. For the same compound, the TGI in the experiment on SK-MEL-5 melanoma was 0.00294 µM; with TK-10 renal, greater than 16.7 µM; in the experiment with UACC-257 melanoma it was greater than 16.7 µM.
On to `O=Cc1ccc(-c2ccc(-c3ccc(C=O)o3)[se]2)o1`, for which the GI50 in the experiment on A549 NSCLC is greater than 100 µM; in the experiment with ACHN renal it was 45.5 µM; with HL-60(TB) leukemia, greater than 100 µM; in the experiment on HOP-92 NSCLC it was 57.1 µM; with MDA-MB-231 breast, 54 µM; in the experiment on NCI-H226 lung, 41.7 µM. For the same compound, the GI50 in the experiment with NCI-H23 lung is 56.3 µM; in the experiment on SK-MEL-5 melanoma, greater than 100 µM; in the experiment with TK-10 renal, 7.73 µM; with UACC-257 melanoma it was greater than 100 µM. Moreover, the TGI with A549 NSCLC, in the experiment on ACHN renal, with HL-60(TB) leukemia, in the experiment with HOP-92 NSCLC, in the experiment with MDA-MB-231 breast and in the experiment with NCI-H226 lung was greater than 100 µM throughout. Also, the TGI in the experiment on NCI-H23 lung, with SK-MEL-5 melanoma, in the experiment with TK-10 renal and with UACC-257 melanoma was greater than 100 µM throughout.
Consider `C/C(=N\O)c1cccc(Nc2cc(-c3ccccc3)nc3c(O)cccc23)c1`, for which the GI50 is 2.37 µM with A549 NSCLC; 6.57 µM in the experiment with ACHN renal; 4.71 µM in the experiment with HL-60(TB) leukemia; 1.91 µM in the experiment on HOP-92 NSCLC; 2.34 µM in the experiment on MDA-MB-231 breast; 7.37 µM in the experiment on NCI-H226 lung. Besides, the GI50 in the experiment with NCI-H23 lung was 4.2 µM; with SK-MEL-5 melanoma it was 1.53 µM; in the experiment with TK-10 renal, 8.44 µM; in the experiment on UACC-257 melanoma, 6.28 µM. Further, the TGI with A549 NSCLC was 23.5 µM; with ACHN renal, 22.5 µM; with HL-60(TB) leukemia, greater than 66.3 µM; in the experiment on HOP-92 NSCLC, 13.7 µM; with MDA-MB-231 breast it was 13.3 µM; in the experiment with NCI-H226 lung, 37.5 µM. The TGI in the experiment on NCI-H23 lung came out at 20.2 µM; in the experiment on SK-MEL-5 melanoma it was 16 µM; in the experiment on TK-10 renal it was 47.7 µM; with UACC-257 melanoma, 25.4 µM.
With `CS(=N)(=O)CCC(N)P(=O)(O)O` (centres undefined), the TGI in the experiment on A549 NSCLC, with ACHN renal, with HL-60(TB) leukemia, with HOP-92 NSCLC, with MDA-MB-231 breast and in the experiment with NCI-H226 lung was greater than 100 µM throughout. Besides, the TGI in the experiment on NCI-H23 lung, in the experiment with SK-MEL-5 melanoma, with TK-10 renal and in the experiment with UACC-257 melanoma was greater than 100 µM each time.
Take `CC(C)OCc1cc(CN2CCN(c3cccc(Cl)c3)CC2)c(O)c2ncccc12`: the GI50 with A549 NSCLC is 0.512 µM; in the experiment on ACHN renal it was 0.332 µM; with HL-60(TB) leukemia, 0.388 µM; with HOP-92 NSCLC, 1.43 µM; with MDA-MB-231 breast it was 0.611 µM; with NCI-H226 lung, 1.39 µM. Further, the GI50 in the experiment with NCI-H23 lung was 1.03 µM; in the experiment on SK-MEL-5 melanoma, 0.445 µM; in the experiment on TK-10 renal, 0.837 µM; in the experiment with UACC-257 melanoma it was 1.56 µM. The TGI with A549 NSCLC came out at 11.9 µM; in the experiment with ACHN renal, 12.4 µM; in the experiment with HL-60(TB) leukemia, 2.84 µM; with HOP-92 NSCLC it was 19.4 µM; with MDA-MB-231 breast, 14.2 µM; in the experiment with NCI-H226 lung, 6.56 µM. Besides, the TGI worked out at 19 µM with NCI-H23 lung, 2.1 µM in the experiment on SK-MEL-5 melanoma, 21 µM in the experiment with TK-10 renal and 9.58 µM with UACC-257 melanoma.
